Assay results: patent US9493663B2, “Photopolymerizable inkjet ink, ink cartridge, and printer” (RICOH COMPANY, LTD., priority 2011, dated 2016)

Assay: not given
Details: MSDS; equivalent to SI value of less than 3; cited from earlier work
For “Caprolactone-modified dipentaerythritol hexaacrylate [Example A7]”, the “skin sensitization evaluated in MSDS” value is given as “negative”.

Same assay, conditions: literature; equivalent to SI value of less than 3; cited from earlier work
In the case of C=C(C)C(=O)OCCCCCC [Example A17, n-Hexyl methacrylate], the “skin sensitization evaluated in literature” value is listed as “negative”.
For C=C(C)C(=O)OCCCCC [Example A16, n-Pentyl methacrylate], the “skin sensitization evaluated in literature” value is given as “negative”.
For C=C(C)C(=O)OC(C)(C)C [Example A15, t-Butyl methacrylate], the “skin sensitization evaluated in literature” value is given as “negative”.

Assay: skin sensitization test (LLNA, Local Lymph Node Assay, OECD test guideline 429), Stimulation Index
Format: in vivo
Details: SI less than 3 judged negative
From the text: As described in literatures (for example, “Functional Material” (Kino Zairyou) 2005, September, Vol. 25, No. 9, p. 55), the compound having a Stimulation Index (SI value) of less than 3, where the Stimulation Index indicates the extent of skin sensitization, is judged as being negative for skin sensitization. […] The lower SI value means lower skin sensitization. […] The SI value of the monomer or the oligomer used is preferably 2 or lower, more preferably 1.6 or lower.
The description “negative” or “none” is equivalent to the SI value of less than 3.
For C=C(C)C(=O)OCC(CC)(COC(=O)C(=C)C)COC(=O)C(=C)C [Example A5, Trimethylolpropane trimethacrylate], the “SI value (Stimulation Index)” value was 1.9.
In the case of “Polyethylene glycol dimethacrylate represented by General Formula (1) (n is nearly equal to 2) [Example A23]”, the “SI value (Stimulation Index)” value is reported as 1.1.
With “Polyethoxylated tetramethylolmethane tetraacrylate [Example A9]” the “SI value (Stimulation Index)” value was 1.7.
For C=C(C)C(=O)OCCCCCCCCCCCCCCCCCC [Example A21, Stearyl methacrylate], the “SI value (Stimulation Index)” value was 1.2.
With “Polyethylene glycol dimethacrylate represented by the following General Formula (1) (n is nearly equal to 9) [Example A2]” the “SI value (Stimulation Index)” value was 1.3.
For C=CC(=O)OCCCCCCCCCCCCCCCC(C)C [Example A19, Isostearyl acrylate], the “SI value (Stimulation Index)” value was 1.4.
In the case of C=CC(=O)OCCCCCCCCCCCCCCCCCC [Example A12, Stearyl acrylate], the “SI value (Stimulation Index)” value is reported as 2.7.
For “Tricyclodecanedimethanol dimethacrylate [Example A6]”, the “SI value (Stimulation Index)” value was 1.3.
In the case of “Polypropylene glycol diacrylate [Example A14, Polypropylene glycol diacrylate [CH2═CH—CO—(OC3H6)n—OCOCH═CH2 (n is nearly equal to 12)]]”, the “SI value (Stimulation Index)” value is reported as 1.5.
For C=C(C)C(=O)OCC(C)(C)COC(=O)C(=C)C [Example A1, Neopentyl glycol dimethacrylate], the “SI value (Stimulation Index)” value was 2.0.
With “γ-Butyrolactone methacrylate [Example A4]” the “SI value (Stimulation Index)” value was 2.1.
In the case of “Polyethylene glycol dimethacrylate represented by General Formula (1) (n is nearly equal to 14) [Example A3]”, the “SI value (Stimulation Index)” value is reported as 1.6.
For C=C(C)C(=O)OCCCCOC(=O)C(=C)C [Example A13, 1,4-Butanediol dimethacrylate], the “SI value (Stimulation Index)” value was 2.6.
